One assay relates to MCF7 cells. Put plainly: Whole cell cytotoxicity assay: Sulforhodamine B. The settings on record: Homo sapiens; compound at 100 μM; MCF7 cell growth; 48 hours with drug; SRB staining. It is filed as cell-based, human. In short, it runs like this:
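MCF7 cells in DMEM with 10% FBS were seeded 24 h before compound, then exposed to nine concentrations for 48 h at 37° C. TCA-fixed cells stained with sulforhodamine B; absorbance at 570 nm, with a time-zero plate fixed at drug addition.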
(The SRB assay estimates cell density from bound dye.)

Assay [1] deals with Histone deacetylase (HDAC), HeLa cell nuclear extract. Put plainly: In vitro fluorescent histone deacetylase assay (Biomol kit, HeLa cell nuclear extract). It is filed as biochemical. The settings on record: compound at 100 μM; HeLa cell nuclear extract as HDAC source; substrate 50 μM; 10 min at room temperature. The procedure:
Histone deacetylase (HDAC) activity assays were performed using the HDAC fluorescent activity assay/drug discovery kit (Biomol Research Laboratories, Plymouth Meeting, Pa.) essentially according to the manufacturer's instructions. The included HeLa cell nuclear extract, which contains a mosaic of HDAC enzymes and other nuclear factors, was used as the source of HDAC activity. The final substrate concentration in the assay mixture was 50 μM. The reaction was allowed to proceed for 10 min at room temperature before stopping the reaction. Test compounds were prepared as 20 mM stock solutions in DMSO (Molecular Biology grade, Sigma-Aldrich Co. St. Louis, Mo.) and stored at −70° C. Serial dilutions of test compounds were prepared in assay buffer immediately prior to testing. DMSO was determined in a separate trial to have no significant effect on the activity of this assay at concentrations up to 5%; the final DMSO concentration in the wells was no more than 2% and therefore DMSO effects were safely neglected. Assays were performed in white polystyrene 96-well half-area assay plates (Corning, Corning, N.Y.) and measured on a Wallace 1420 fluorescent plate reader (Wallac Oy, Turku, Finland) with an excitation wavelength of 355 nm, an emission wavelength of 460 nm, and a 1 sec signal averaging time.

A word on the inhibition: it is the percentage by which the read-out fell short of the control. Low values mean little suppression, high ones strong suppression. As to `O=C(NO)c1cnc(N2CCN(S(=O)(=O)c3ccc(-c4ccccc4Cl)cc3)CC2)s1` [Example 58, 2-{4-[(2′-chloro-1,1′-biphenyl-4-yl)sulfonyl]piperazin-1-yl}-1,3-thiazole-5-carboxylic acid hydroxyamide], the inhibition at 100 µM with MCF7 cells is 97.6%. Moreover, in assay [1], the “% inhibition HDAC @ 100 μM” value was found to be 95%.
`O=C(NO)c1cnc(N2CCN(S(=O)(=O)c3ccc(-c4ccco4)cc3)CC2)s1` [Example 59, 2-(4-{[4-(2-furyl)phenyl]sulfonyl}piperazin-1-yl)-1,3-thiazole-5-carboxylic acid hydroxyamide] came in with an inhibition at 100 µM in the assay with MCF7 cells of 98.9%. Moreover, the “% inhibition HDAC @ 100 μM” value in assay [1] turned out to be 99%.
Take `O=C(NO)c1cnc(N2CCN(S(=O)(=O)c3ccc(-c4ccc5c(c4)OCO5)cc3)CC2)s1` [Example 60, 2-(4-{[4-(1,3-benzodioxol-5-yl)phenyl]sulfonyl}piperazin-1-yl)-1,3-thiazole-5-carboxylic acid hydroxyamide]: testing at 100 µM in the assay with MCF7 cells gave an inhibition of 92.1%. For the same compound, the “% inhibition HDAC @ 100 μM” value in assay [1] is listed as 99%.
In the assay on MCF7 cells, `O=C(NO)c1cnc(N2CCN(S(=O)(=O)c3ccc(-c4cccc(F)c4)cc3)CC2)s1` [Example 61] had an inhibition at 100 µM of 92.2%. Also, in assay [1], the “% inhibition HDAC @ 100 μM” value is 95%.
On the same counts, the results for `O=C(NO)c1cnc(N2CCN(S(=O)(=O)c3ccc(-c4ccc(Cl)cc4)cc3)CC2)s1` [Example 62] are 75% and 98%.
The like results for `COc1ccc(-c2ccc(S(=O)(=O)N3CCN(c4ncc(C(=O)NO)s4)CC3)cc2)cc1` [Example 63] were, in that order, 93.3% and 98%.
As to `CC(C)(C)c1ccc(-c2ccc(S(=O)(=O)N3CCN(c4ncc(C(=O)NO)s4)CC3)cc2)cc1` [Example 64], in the assay on MCF7 cells, the inhibition at 100 µM was 87%. In assay [1], the “% inhibition HDAC @ 100 μM” value turned out to be 48%.
The like results for `O=C(NO)c1cnc(N2CCN(S(=O)(=O)c3ccc(-c4cccs4)cc3)CC2)s1` [Example 65, 2-{4-[(4-thien-2-ylphenyl)sulfonyl]piperazin-1-yl}-1,3-thiazole-5-carboxylic acid hydroxamide] were, in that order, 95% and 99%.
The like results for `CC(C)(C)OC(=O)n1cccc1-c1ccc(S(=O)(=O)N2CCN(c3ncc(C(=O)NO)s3)CC2)cc1` [Example 66] were, in that order, 97% and 99%.
The like results for `CN(C)C(=O)c1ccc(-c2ccc(S(=O)(=O)N3CCN(c4ncc(C(=O)NO)s4)CC3)cc2)cc1` [Example 68, 2-[4-(4′-N,N-dimethylcarboxamido-1,1′-biphenylsulfonyl)piperazin-1-yl]-1,3-thiazole-5-carboxylic acid hydroxyamide] were, in that order, 84.7% and 99%.
As to `O=C(NO)c1cnc(N2CCN(S(=O)(=O)c3ccc(-c4ccncc4)cc3)CC2)s1` [Example 72, 2-{4-[4-(pyridin-4-yl)phenylsulfonyl]piperazin-1-yl}-1,3-thiazole-5-carboxylic acid hydroxyamide], in the assay on MCF7 cells, the inhibition at 100 µM was found to be 84.5%. For the same compound, in assay [1], the “% inhibition HDAC @ 100 μM” value is given as 98%.
On the same counts, the results for `O=C(NO)c1cnc(N2CCN(S(=O)(=O)c3ccc(-c4cccc(CN5CCCCC5)c4)cc3)CC2)s1` [Example 73] are 96.7% and 100%.
As to `CN(C)Cc1cccc(-c2ccc(S(=O)(=O)N3CCN(c4ncc(C(=O)NO)s4)CC3)cc2)c1.Cl` [Example 74], the inhibition at 100 µM in the assay on MCF7 cells came out at 97.3%. Besides, in assay [1], the “% inhibition HDAC @ 100 μM” value stood at 100%.
In the assay with MCF7 cells, `Cl.O=C(NO)c1cnc(N2CCN(S(=O)(=O)c3ccc(-c4cccc(CN5CCCC5)c4)cc3)CC2)s1` [Example 75] had an inhibition at 100 µM of 98.6%. Further, the “% inhibition HDAC @ 100 μM” value in assay [1] is 100%.
On the same counts, the results for `CC1CCN(Cc2cccc(-c3ccc(S(=O)(=O)N4CCN(c5ncc(C(=O)NO)s5)CC4)cc3)c2)CC1.Cl` [Example 76] are 98% and 99%.
The like results for `Cl.O=C(NO)c1cnc(N2CCN(S(=O)(=O)c3ccc(-c4cccc(CN5CCCCCC5)c4)cc3)CC2)s1` [Example 77] were, in that order, 98% and 100%.
In turn, `CCN(CC)Cc1cccc(-c2ccc(S(=O)(=O)N3CCN(c4ncc(C(=O)NO)s4)CC3)cc2)c1.Cl` [Example 78] gave an inhibition at 100 µM in the assay on MCF7 cells of 99%. Besides, the “% inhibition HDAC @ 100 μM” value in assay [1] is given as 100%.
On the same counts, the results for `C=CCN(C)Cc1cccc(-c2ccc(S(=O)(=O)N3CCN(c4ncc(C(=O)NO)s4)CC3)cc2)c1.Cl` [Example 79] are 98% and 99%.
On the same counts, the results for `CN(C)Cc1ccc(-c2ccc(S(=O)(=O)N3CCN(c4ncc(C(=O)NO)s4)CC3)cc2)cc1` [Example 80] are 97.9% and 99%.
The like results for `CN(C)Cc1sccc1-c1ccc(S(=O)(=O)N2CCN(c3ncc(C(=O)NO)s3)CC2)cc1` [Example 81] were, in that order, 97.1% and 100%.
Regarding `O=C(NO)c1cnc(N2CCN(S(=O)(=O)c3ccc(-c4ccsc4CN4CCCC4)cc3)CC2)s1` [Example 82], in the assay on MCF7 cells, the inhibition at 100 µM amounted to 92.7%. For the same compound, in assay [1], the “% inhibition HDAC @ 100 μM” value is 99%.
The like results for `CN1CCN(Cc2cccc(-c3ccc(S(=O)(=O)N4CCN(c5ncc(C(=O)NO)s5)CC4)cc3)c2)CC1` [Example 84] were, in that order, 96.7% and 100%.
`CCN(C)Cc1cccc(-c2ccc(S(=O)(=O)N3CCN(c4ncc(C(=O)NO)s4)CC3)cc2)c1` [Example 86]: in the assay on MCF7 cells, the inhibition at 100 µM stood at 97.8%. Moreover, the “% inhibition HDAC @ 100 μM” value in assay [1] is recorded as 99%.
`CC(C)N(C)Cc1cccc(-c2ccc(S(=O)(=O)N3CCN(c4ncc(C(=O)NO)s4)CC3)cc2)c1` [Example 87, 2-{4-[(3′-[isopropyl(methyl)amino]methyl]-1,1′-biphenylsulfonyl]-piperazin-1-yl}-1,3-thiazole-5-carboxylic acid hydroxyamide] showed an inhibition at 100 µM in the assay with MCF7 cells of 97.7%. The “% inhibition HDAC @ 100 μM” value in assay [1] worked out at 99%.
In the assay with MCF7 cells, `O=C(NO)c1cnc(N2CCN(S(=O)(=O)c3ccc(-c4ccc(CN5CCCC5)s4)cc3)CC2)s1` [Example 88] returned an inhibition at 100 µM of 93.8%. For the same compound, the “% inhibition HDAC @ 100 μM” value in assay [1] is on record as 99%.
As for `O=C(NO)c1cnc(N2CCN(S(=O)(=O)c3ccc(-c4sccc4CN4CCCC4)cc3)CC2)s1` [Example 89], in the assay with MCF7 cells, 100 µM produced 98.3% inhibition. Besides, the “% inhibition HDAC @ 100 μM” value in assay [1] is 99%.
The like results for `O=C(NO)c1cnc(N2CCN(S(=O)(=O)c3ccc(-c4cccc(CN5CCCC5)c4)s3)CC2)s1` [Example 90, 2-(4-{5-[3-(pyrrolidin-1-ylmethyl)phenyl]thiophene-2-sulfonyl}piperazin-1-yl)-1,3-thiazole-5-carboxylic acid hydroxyamide] were, in that order, 98% and 99%.
The like results for `O=C(NO)c1cnc(N2CCN(S(=O)(=O)c3ccc(-c4cncnc4)cc3)CC2)s1` [Example 91, 2-[4-{(4-pyrimidine)benzenesulfonyl}-piperazin-1-yl]-thiazole-5-carboxylic acid hydroxyamide] were, in that order, 94.6% and 99%.
The like results for `CC(=O)Nc1ccc(-c2ccc(S(=O)(=O)N3CCN(c4ncc(C(=O)NO)s4)CC3)cc2)cc1` [Example 92] were, in that order, 88.8% and 100%.
As for `O=C(NO)c1cnc(N2CCN(S(=O)(=O)c3ccc(-c4cccnc4)cc3)CC2)s1` [Example 93, 2-[4-{(3-pyrido)benzenesulfonyl}-piperazin-1-yl]-thiazole-5-carboxylic acid hydroxyamide], 100 µM produced 92.7% inhibition in the assay on MCF7 cells. Besides, the “% inhibition HDAC @ 100 μM” value in assay [1] is on record as 100%.
On the same counts, the results for `O=C(NO)c1cnc(N2CCN(S(=O)(=O)CCc3ccccc3)CC2)s1` [Example 94, 2-[4-(phenethylsulfonyl)-piperazin-1-yl]-thiazole-5-carboxylic acid hydroxyamide] are 90.6% and 98%.
`CN(C)Cc1ccc(S(=O)(=O)N2CCN(c3ncc(C(=O)NO)s3)CC2)cc1` [Example 95] registered an inhibition at 100 µM in the assay with MCF7 cells of 96.8%. The “% inhibition HDAC @ 100 μM” value in assay [1] worked out at 98%.
The like results for `CN(C)Cc1cccc(S(=O)(=O)N2CCN(c3ncc(C(=O)NO)s3)CC2)c1` [Example 97] were, in that order, 83.9% and 99%.
Take `O=C(NO)c1cnc(N2CCN(S(=O)(=O)c3cccc(CN4CCCC4)c3)CC2)s1` [Example 98]: the inhibition at 100 µM in the assay with MCF7 cells was 92.2%. Moreover, the “% inhibition HDAC @ 100 μM” value in assay [1] was determined as 98%.
Regarding `COCc1cccc(S(=O)(=O)N2CCN(c3ncc(C(=O)NO)s3)CC2)c1` [Example 99, 2-[4-(3-methoxymethylbenzenesulfonyl)-piperazin-1-yl]-thiazole-5-carboxylic acid hydroxyamide], the inhibition at 100 µM in the assay on MCF7 cells is 96%. The “% inhibition HDAC @ 100 μM” value in assay [1] is on record as 99%.
